For data set [1] the following is noted: cited from earlier work.
A short description of data set [2]: Individual components administered separately from the other components. Format: in vivo, human. The conditions noted are these: administered separately from the other components of the invention. From the text:
Thus, the invention is named “Formula of activity”. The invention offers methods of treating patients who refuse food and can die as a result. […] It is possible that this new effect is produced by a new substance that is formed as a result of the interaction of the components of the invention with each other or with other naturally occurring substances in the body. The components may exert their effect by through the reticular formation in the brain, which is the regulating center of different brain functions. The reticular formation coordinates the interactions between all structures of the brain. It analyzes and corrects the functions of the brain structures and ensures their proper hierarchical dependencies, as well as the readiness of the central nervous system to perform its functions.

Data set [3] can be described thus: Effect of composition on selected patients and disorders (case reports). The data set is classed as in vivo, human. From the text: The following are several of many patients who were successfully treated by the invention.

For `CCC1(CCC(C)C)C(=O)N=C([O-])NC1=O.[Na+]` (stereo not shown) [Barbamyl], in data set [1], the “Dependency on repeated injections” value is “lead to psychological and physiological dependency on this substance”.
Consider `O=S(=O)([O-])[O-].[Mg+2]` [Magnesium sulfate, magnesium sulfate], for which the “Stimulating or disinhibiting effect / effect on appetite when administered alone” value in data set [2] is listed as “does not lead to a desired stimulating or disinhibiting effect”.
For `CN1CCN(CCCN2c3ccccc3Sc3ccc(C(F)(F)F)cc32)CC1` [Stelazine], the Clinical outcome in data set [3] (Patient N, postpartum psychosis, 5 mg once per day first week, then 1 mg two times a day) is “improved regarding their condition and delusional ideas; however they remained apathetic, fatigued and indifferent”.
On to `O=S(=O)([O-])CC(S)CS.[Na+]` (stereo not shown) [Unithiol], for which the “Stimulating or disinhibiting effect / effect on appetite when administered alone” value in data set [2] is listed as “does not lead to a desired stimulating or disinhibiting effect”.
For `CN(C)CCCN1c2ccccc2Sc2ccc(Cl)cc21` [aminazine], in data set [3] (Patient B, paranoid schizophrenia, after disinhibition, 50 mg intravenously), the Effect after administration entry is “the patient fell asleep”.
For `CN1C(=O)CN=C(c2ccccc2)c2cc(Cl)ccc21` [valium], in data set [3] (Patient S, closed head trauma, before the course of the invention, injection), the Sleep result is listed as “they would fall asleep only after injection of valium”.
With calcium pantothenate, the “Stimulating or disinhibiting effect / effect on appetite when administered alone” value in data set [2] is listed as “does not lead to a desired stimulating or disinhibiting effect”.
